pIC50: −log10 of the molar value.
Target: T1, human DP2 receptor (Homo sapiens, UniProt Q9Y5Y4)
T1 construct: expressed in transfected cells
T1 sequence (Q9Y5Y4 1-395): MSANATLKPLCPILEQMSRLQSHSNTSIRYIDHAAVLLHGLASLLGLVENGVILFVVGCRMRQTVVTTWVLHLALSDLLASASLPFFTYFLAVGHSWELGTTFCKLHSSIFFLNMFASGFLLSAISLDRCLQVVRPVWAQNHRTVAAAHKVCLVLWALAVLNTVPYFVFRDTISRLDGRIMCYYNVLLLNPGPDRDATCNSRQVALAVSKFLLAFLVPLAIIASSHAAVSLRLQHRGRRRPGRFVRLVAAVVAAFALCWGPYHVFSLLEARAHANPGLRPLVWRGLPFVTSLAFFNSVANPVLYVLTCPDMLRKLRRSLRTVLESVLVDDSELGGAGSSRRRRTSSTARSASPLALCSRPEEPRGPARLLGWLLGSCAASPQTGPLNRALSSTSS
Experiment: DP2/CRTH2 radioligand binding assay using [3H]PGD2
Settings: hDP2 (CRTH2) binding assay, membranes of HEK293 cells expressing recombinant human DP2
Procedure: The ability of a compound to bind to the human DP2 receptor is assessed via a radioligand binding assay using [^3H]PGD2. HEK293 cells stably expressing recombinant human DP2 are resuspended in 10 mM Hepes, 7.4 containing 1 mM DTT, lysed and centrifuged at 75,000×g to pellet the membranes. The membranes are resuspended in 10 mM Hepes, 7.4 containing 1 mM DTT and 10% glycerol to approximately 5 mg protein/ml. Membranes (2-10 μg protein/well) are incubated in 96-well plates with 1 nM [^3H]PGD2 and test compound in Assay Buffer (50 mM Hepes, 10 mM MnCl2, 1 mM EDTA, plus or minus 0.2% human serum albumin, pH 7.4) for 60 minutes at room temperature. The reactions are terminated by rapid filtration through Whatman GF/C glass fibre filter plates. The filter plates were pre-soaked in 0.33% polyethylenimine for 30 minutes at room temperature then washed in Wash Buffer (50 mM Hepes, 0.5 M NaCl pH 7.4) prior to harvesting. After harvesting, the filter plates are washed 3 times with 1 ml cold Wash Buffer then dried. Scintillant is then added to the plates and the radioactivity retained on the filters is determined on a Packard TopCount (Perkin Elmer). Specific binding is determined as total radioactive binding minus non-specific binding in the presence of 10 μM PGD2. IC50s were determined using GraphPad prism analysis of drug titration curves.

Row | Structure (SMILES) | pIC50
1 | CC(=O)N(CCc1ccccc1)Cc1cc(Br)ccc1Oc1cccc(CC(=O)O)c1 [Compound 1-1, (3-{2-[(Acetyl-phenethyl-amino)-methyl]-4-bromo-phenoxy}-phenyl)-acetic acid] | > 6.52
2 | CCN(Cc1cc(C(F)(F)F)ccc1Oc1cccc(CC(=O)O)c1)S(=O)(=O)c1ccc(S(C)(=O)=O)cc1 [Compound 1-28, [3-(2-{[Ethyl-(4-methanesulfonyl-benzenesulfonyl)-amino]-methyl}-4-trifluoromethyl-phenoxy)-phenyl]-acetic acid] | < 6.52
3 | CCN(Cc1cc(NC(=O)C(C)(C)C)ccc1Oc1cc(CC(=O)O)ccc1OC)C(C)=O [Compound 1-45, {3-[2-[(Acetyl-ethyl-amino)-methyl]-4-(2,2-dimethyl-propionylamino)-phenoxy]-4-methoxy-phenyl}-acetic acid] | > 6.52
4 | COC(=O)N(Cc1cc(Br)ccc1Oc1cccc(CC(=O)O)c1)[C@@H](C)Cc1ccccc1 [Compound 1-5, [3-(4-Bromo-2-{[methoxycarbonyl-((S)-1-methyl-2-phenyl-ethyl)-amino]-methyl}-phenoxy)-phenyl]-acetic acid] | > 6.52
5 | CCN(Cc1cc(C(F)(F)F)ccc1Oc1cccc(CC(=O)O)c1)S(=O)(=O)c1ccc(C(C)=O)cc1 [Compound 1-29, [3-(2-{[(4-Acetyl-benzenesulfonyl)-ethyl-amino]-methyl}-4-trifluoromethyl-phenoxy)-phenyl]-acetic acid] | > 6.52
6 | O=C(O)CCn1c2c(c3ccccc31)C[C@H](NS(=O)(=O)c1ccc(F)cc1)CC2 [Ramatroban, reference compound] | < 6.52
7 | COC(=O)N(Cc1cc(N(C)C(C)=O)ccc1Oc1cccc(CC(=O)O)c1)[C@@H](C)Cc1ccccc1 [Compound 1-39, [3-(4-(Acetyl-methyl-amino)-2-{[methoxycarbonyl-((S)-1-methyl-2-phenyl-ethyl)-amino]-methyl}-phenoxy)-phenyl]-acetic acid] | < 6.52
8 | CCN(Cc1cc(NC(=O)c2ccc(Cl)cc2)ccc1Oc1cc(CC(=O)O)ccc1OC)C(=O)C1CC1 [Compound 1-48, (3-{4-(4-Chloro-benzoylamino)-2-[(cyclopropanecarbonyl-ethyl-amino)-methyl]-phenoxy}-4-methoxy-phenyl)-acetic acid] | > 6.52
9 | CCN(Cc1cc(C(F)(F)F)ccc1Oc1cccc(CC(=O)O)c1)S(=O)(=O)c1ccc(Br)cc1 [Compound 1-31, [3-(2-{[(4-Bromo-benzenesulfonyl)-ethyl-amino]-methyl}-4-trifluoromethyl-phenoxy)-phenyl]-acetic acid] | > 6.52
10 | CC(=O)N(Cc1cc(C(F)(F)F)ccc1Oc1cccc(CC(=O)O)c1)C1CCc2ccccc21 (stereo in doubt) [Compound 1-14, (3-{2-[((S)-Acetyl-indan-1-yl-amino)-methyl]-4-trifluoromethyl-phenoxy}-phenyl)-acetic acid] | > 6.52
11 | O=C(O)Cc1cccc(Oc2ccc(C(F)(F)F)cc2CNS(=O)(=O)c2ccc(Cl)cc2)c1 [Compound 1-22, (3-{2-[(4-Chloro-benzenesulfonylamino)-methyl]-4-trifluoromethyl-phenoxy}-phenyl)-acetic acid] | > 6.52
12 | CCN(Cc1cc(C(F)(F)F)ccc1Oc1cccc(CC(=O)O)c1)S(=O)(=O)c1ccc(C)cc1 [Compound 1-27, [3-(2-{[Ethyl-(toluene-4-sulfonyl)-amino]-methyl}-4-trifluoromethyl-phenoxy)-phenyl]-acetic acid] | > 6.52
13 | COC(=O)N(Cc1ccccc1)Cc1cc(Br)ccc1Oc1cccc(CC(=O)O)c1 [Compound 1-3, (3-{2-[(Benzyl-methoxycarbonyl-amino)-methyl]-4-bromo-phenoxy}-phenyl)-acetic acid] | > 6.52
14 | COC(=O)N(CCc1ccccc1)Cc1cc(Br)ccc1Oc1cccc(CC(=O)O)c1 [Compound 1-4, (3-{4-Bromo-2-[(methoxycarbonyl-phenethyl-amino)-methyl]-phenoxy}-phenyl)-acetic acid] | > 6.52
15 | CCN(Cc1cc(Br)ccc1Oc1cc(CC(=O)O)ccc1OC)C(C)=O [Compound 1-8, (3-{2-[(Acetyl-ethyl-amino)-methyl]-4-bromo-phenoxy}-4-methoxy-phenyl)-acetic acid] | > 6.52
16 | COC(=O)N(Cc1cc(NC(C)=O)ccc1Oc1cccc(CC(=O)O)c1)[C@@H](C)Cc1ccccc1 [Compound 1-38, [3-(4-Acetylamino-2-{[methoxycarbonyl-((S)-1-methyl-2-phenyl-ethyl)-amino]-methyl}-phenoxy)-phenyl]-acetic acid] | > 6.52
17 | CCN(Cc1cc(C(F)(F)F)ccc1Oc1cccc(CC(=O)O)c1)S(=O)(=O)c1ccc(OC)cc1 [Compound 1-26, [3-(2-{[Ethyl-(4-methoxy-benzenesulfonyl)-amino]-methyl}-4-trifluoromethyl-phenoxy)-phenyl]-acetic acid] | > 6.52
18 | COC(=O)N(Cc1cc(NS(C)(=O)=O)ccc1Oc1cccc(CC(=O)O)c1)[C@@H](C)Cc1ccccc1 [Compound 1-41, [3-(4-Methanesulfonylamino-2-{[methoxycarbonyl-((S)-1-methyl-2-phenyl-ethyl)amino]-methyl}-phenoxy)-phenyl]-acetic acid] | > 6.52
19 | C[C@H](NCc1cc(C(F)(F)F)ccc1Oc1cccc(CC(=O)O)c1)[C@H](O)c1ccccc1 [Compound 1-12, (3-{2-[((1S,2R)-2-Hydroxy-1-methyl-2-phenyl-ethylamino)-methyl]-4-trifluoromethyl-phenoxy}-phenyl)-acetic acid] | < 6.00
20 | COC(=O)N(Cc1cc(N(C)S(C)(=O)=O)ccc1Oc1cccc(C(C)C(=O)O)c1)[C@@H](C)Cc1ccccc1 (stereo partly drawn) [Compound 1-43, 2-[3-(4-(Methanesulfonyl-methyl-amino)-2-{[methoxycarbonyl-((S)-1-methyl-2-phenyl-ethyl)-amino]-methyl}-phenoxy)-phenyl]-propionic acid] | < 6.00
21 | CCN(Cc1cc(C(F)(F)F)ccc1Oc1cccc(CC(=O)O)c1)C(=O)c1ccccc1 [Compound 1-17, (3-{2-[(Benzoyl-ethyl-amino)-methyl]-4-trifluoromethyl-phenoxy}-phenyl)-acetic acid] | > 6.52
22 | CCN(Cc1cc(NC(=O)c2ccc(Cl)cc2)ccc1Oc1cc(CC(=O)O)ccc1OC)C(C)=O [Compound 1-46, {3-[2-[(Acetyl-ethyl-amino)-methyl]-4-(4-chloro-benzoylamino)-phenoxy]-4-methoxy-phenyl}-acetic acid] | > 6.52
23 | CCN(Cc1cc(C(F)(F)F)ccc1Oc1cccc(CC(=O)O)c1)S(=O)(=O)c1ccc(N(C)c2cccc(C)c2)cc1 [Compound 1-33, {3-[2-({Ethyl-[4-(methyl-m-tolyl-amino)-benzenesulfonyl]-amino}-methyl)-4-trifluoromethyl-phenoxy]-phenyl}-acetic acid] | > 6.52
24 | CCN(Cc1cc(C(F)(F)F)ccc1Oc1cc(CC(=O)O)ccc1OC)C(C)=O [Compound 1-34, (3-{2-[(Acetyl-ethyl-amino)-methyl]-4-trifluoromethyl-phenoxy}-4-methoxy-phenyl)-acetic acid] | < 6.52
25 | CN(Cc1cc(C(F)(F)F)ccc1Oc1cccc(CC(=O)O)c1)C(=O)Cc1ccccc1 [Compound 1-16, (3-{2-[(Methyl-phenylacetyl-amino)-methyl]-4-trifluoromethyl-phenoxy}-phenyl)-acetic acid] | > 6.52
26 | O=C(O)Cc1cccc(Oc2ccc(C(F)(F)F)cc2CNC(=O)c2ccc(Cl)cc2)c1 [Compound 1-15, (3-{2-[(4-Chloro-benzoylamino)-methyl]-4-trifluoromethyl-phenoxy}-phenyl)-acetic acid] | < 6.52
27 | CC(=O)N(Cc1cc(C(F)(F)F)ccc1Oc1cccc(CC(=O)O)c1)C1CCc2ccccc21 (stereo in doubt) [Compound 1-13, (3-{2-[((R)-Acetyl-indan-1-yl-amino)-methyl]-4-trifluoromethyl-phenoxy}-phenyl)-acetic acid] | > 6.52
28 | CN(Cc1cc(C(F)(F)F)ccc1Oc1cccc(CC(=O)O)c1)S(=O)(=O)c1ccccc1C(F)(F)F [Compound 1-24, [3-(2-{[Methyl-(2-trifluoromethyl-benzenesulfonyl)-amino]-methyl}-4-trifluoromethyl-phenoxy)-phenyl]-acetic acid] | < 6.52
29 | COc1ccc(CC(=O)O)cc1Oc1ccc(C(F)(F)F)cc1CN(Cc1ccccc1)C(C)=O [Compound 1-35, (3-{2-[(Acetyl-benzyl-amino)-methyl]-4-trifluoromethyl-phenoxy}-4-methoxy-phenyl)-acetic acid] | > 6.52
30 | COC(=O)N(Cc1cc(C(F)(F)F)ccc1Oc1cccc(CC(=O)O)c1)C1Cc2ccccc2C1 [Compound 1-20, (3-{2-[(Indan-2-yl-methoxycarbonyl-amino)-methyl]-4-trifluoromethyl-phenoxy}-phenyl)-acetic acid] | > 6.52
